Laboratory results as given in PMC12766724, “Synthesis, Anthelmintic Activity, and Mechanism of Action of 5‑Aryl‑1H‑indoles” (Journal of Agricultural and Food Chemistry, 2025).
Like-named read-outs stand apart in the source and are kept apart here.

Key:
[1] = system: age unsynchronized Ditylenchus destructor; test: Motility on WMicrotracker ONE; format: in vivo
Protocol: Populations of D. destructor, kindly provided by Central Institute for Supervising and Testing in Agriculture, the Ministry of Agriculture of the Czech Republic, were maintained according to the protocol previously described here.
(§1) The effect of compounds on motility of H. contortus, D. destructor, and H. schachtii was evaluated using the WMicrotracker ONE platform according to previously published protocols. ,
(§2) The instrument evaluates the activity of small animals by counting how many times infrared light microbeams passing through the wells of a microtiter plate are interrupted. In age-unsynchronized populations of D. destructor, we observed reduced motility of worm populations treated with the halogenated derivatives i-19, i-20, and i-21 (Figures A, S2.1A, S2.2A and Table S2.1). […] The decreases in mean activity counts after 72 h of treatment at 100 μM were 85% and 97%, respectively.

[2] = system: C. elegans CB211 lev-1(e211) IV.; test: Chitinase assay (reproductive capacity); format: in vivo; details: Caenorhabditis elegans; levamisole-resistant strain
Protocol: (§3) C. elegans strains used in this study were N2 (wild-type), levamisole-resistant strains ZZ15 (lev-8(x15) X) and […] (lev-1(e211) IV), ivermectin-resistant strain DA1316 (avr-14(ad1305) I; avr-15(vu227) glc-1(pk54) V), mebendazole-resistant strain […] (ben-1(e1880) III), and three strains with mutations in succinate dehydrogenase, RP2699, RP2700, and RP2702. The worms were cultivated on Nematode Growth Medium agar plates seeded with Escherichia coli OP50 in 20 °C according to the standard cultivation protocols. Strains RP2699, RP2700, and RP2702 were generated by Prof. Peter Roy’s group. All other strains and bacteria were purchased from the Caenorhabditis Genetics Center (CGC, Minneapolis, MN).
(§4) The effect of compounds on C. elegans was evaluated using the Chitinase assay as we described previously.
(§5) Lastly, strain DA1316 has mutations in three genes encoding subunits of the glutamate-gated chloride channel and is highly resistant to avermectins.

[3] = system: C. elegans CB3474 ben-1(e1880) III.; test: Chitinase assay (reproductive capacity); format: in vivo; details: Caenorhabditis elegans; mebendazole-resistant strain
Protocol: as §3, §4, §5

[4] = system: C. elegans ZZ15 lev-8(x15) X.; test: Chitinase assay (reproductive capacity); format: in vivo; details: Caenorhabditis elegans; levamisole-resistant strain
Protocol: as §3, §4, §5

[5] = system: C. elegans DA1316 avr-14(ad1305) I; avr-15(vu227) glc-1(pk54) V.; test: Chitinase assay (reproductive capacity); format: in vivo; details: Caenorhabditis elegans; ivermectin-resistant strain
Protocol: as §3, §4, §5

[6] = system: Heterodera schachtii second-stage juveniles (J2); test: Motility on WMicrotracker ONE; format: in vivo
Protocol: H. schachtii was maintained on mustard (Sinapsis alba cv. Albatros) roots grown in vitro on modified KNOP medium according to the previously published protocols. ,
as §1, §2

[7] = system: Arabidopsis thaliana Col-0; test: Germination rate and phytotoxicity; format: in vivo; details: for average fraction of germinated seeds: 5 DPS; for main root length / plant weight: 10 DPS
Protocol: Wild-type A. thaliana (Col-0 ecotype) seeds were sterilized with 70% EtOH with 0.1% Tween-20 solution (2 × 1 mL) for 10 min, rinsed with 96% EtOH (1 × 1 mL) for 10 min, and kept in the fridge (4 °C in the dark). Seeds were sown on a sterile 1/2 MS medium supplemented with 0.3% DMSO as a mock and test compounds at 5, 10, 50, and 100 μM concentrations in 0.3% DMSO. Plates were kept in long-day light conditions (22 °C/20 °C, 16 h light/8 h dark, 100 μmol m^–2 s^–1). After 5 days, the germination rate was evaluated. After an additional 5 days, primary root growth was measured with ImageJ software (https://imagej.nih.gov/ij/), and seedlings were weighted.

C. elegans N2 wild-type = test: Chitinase assay (reproductive capacity); format: in vivo, Caenorhabditis elegans
Protocol: as §4
(§6) After exposing L1 larvae to the compounds for 4 days, we observed the populations under a microscope and measured the Chitinase activity. The larvae produce the enzyme while hatching, and its activity is indicative of the reproductive capacity of the worms. Populations that fail to reproduce due to acute or reproductive toxicity or developmental abnormalities are detected.

Skin fibroblasts (BJ) = test: Resazurin assay, 3-day treatment; format: cell-based, human; details: BJ
Protocol: Skin fibroblasts (BJ) were obtained from the American Type Culture Collection (ATCC, Manassas, VA), while human keratinocytes (HaCaT) were sourced from the German Cancer Research Center in Heidelberg, Germany. Cells were cultured in a standard DMEM medium from Sigma-Aldrich, supplemented with 10% fetal bovine serum, 2 mM glutamine, 100 U/mL penicillin, and 100 μg/mL streptomycin. Cultures were maintained under standard conditions (37 °C, 5% CO2, humidified atmosphere) and subcultured two to three times per week. We assessed the effect of 3-day compound treatments on cell viability using a resazurin reduction assay measuring mitochondrial activity. Approximately 5,000 cells in 80 μL of culture medium were seeded into the wells of a 96-well plate. Twenty-four hours later, 20 μL of 5-fold concentrated test compound solutions was added and tested across three concentrations prepared through 2-fold serial dilutions. The highest final concentration was 40 μM. After 72 h, we added an 11-fold concentrated resazurin solution to the wells, achieving a final concentration of 0.0125 μM. Fluorescence (ex = 570 nm, em = 610 nm) was measured after 3 h of incubation. […]

[8] = system: human keratinocytes (HaCaT); test: Resazurin assay, 3-day treatment; format: cell-based
Protocol: Skin fibroblasts (BJ) were obtained from the American Type Culture Collection (ATCC, Manassas, VA), while human keratinocytes (HaCaT) were sourced from the German Cancer Research Center in Heidelberg, Germany. Cells were cultured in a standard DMEM medium from Sigma-Aldrich, supplemented with 10% fetal bovine serum, 2 mM glutamine, 100 U/mL penicillin, and 100 μg/mL streptomycin. Cultures were maintained under standard conditions (37 °C, 5% CO2, humidified atmosphere) and subcultured two to three times per week. We assessed the effect of 3-day compound treatments on cell viability using a resazurin reduction assay measuring mitochondrial activity. Approximately 5,000 cells in 80 μL of culture medium were seeded into the wells of a 96-well plate. Twenty-four hours later, 20 μL of 5-fold concentrated test compound solutions was added and tested across three concentrations prepared through 2-fold serial dilutions. The highest final concentration was 40 μM. After 72 h, we added an 11-fold concentrated resazurin solution to the wells, achieving a final concentration of 0.0125 μM. Fluorescence (ex = 570 nm, em = 610 nm) was measured after 3 h of incubation.
The disubstituted derivatives i-25 and i-27 were the most toxic in the set, causing around a 50% decrease in viability of HaCaT cells at 40 μM.

C. elegans wild-type N2 = test: Microscopic scoring (score 1-5) of worm populations prior to the Chitinase assay, L1 exposed 4 days; format: in vivo, Caenorhabditis elegans; details: 50 μM; score 1 (dead/arrested L1) to 5 (healthy)
Text: Dead or mostly immobile worms, arrested at the L1 stage, received a score of 1. Populations with severely delayed development were scored as 2. More developmentally advanced, but still obviously delayed worms were given the score of 3. Adult worms that produce a noticeably lower number of progeny received a score of 4. Healthy worms that reproduce normally (i.e., hundreds of eggs and larvae are present) were scored as 5 (see Figure C for representative images). In a typical, correctly prepared experiment, vehicle-treated populations should receive a score of 5, while worms treated with ivermectin (positive control) should receive a score of 1.
as §6

[9] = 10 µM group, initial (prior to the treatment)
[10] = 50 µM group, initial (prior to the treatment)
[11] = 100 µM group, initial (prior to the treatment)

| Compound | average activity counts [1, 9] | average activity counts ([1]; 10 µM, 48 h) | average activity counts ([1]; 10 µM, 72 h) | average activity counts [1, 10] | average activity counts ([1]; 50 µM, 48 h) | average activity counts ([1]; 50 µM, 72 h) | average activity counts [1, 11] | average activity counts ([1]; 100 µM, 48 h) | average activity counts ([1]; 100 µM, 72 h) | IC50 [2] [µM] | IC50 [3] [µM] | IC50 [4] [µM] | IC50 [5] [µM] | average activity counts [6, 9] | average activity counts ([6]; 10 µM, 48 h) | average activity counts ([6]; 10 µM, 72 h) | average activity counts [6, 10] | average activity counts ([6]; 50 µM, 48 h) | average activity counts ([6]; 50 µM, 72 h) | average score (C. elegans wild-type N2) | other results |
| --- | --- | --- | --- | --- | --- | --- | --- | --- | --- | --- | --- | --- | --- | --- | --- | --- | --- | --- | --- | --- | --- |
| CCOc1cccc(-c2ccc3[nH]ccc3c2)c1 [i-9] | 199 | 183 | 205 | 200 | 176 | 212 | 228 | 171 | 181 | 9.65 ± 1.82 | 10.2 ± 0.5 | 9.71 ± 1.34 | 9.34 ± 2.01 | 167 | 161 | 159 | 201 | 207 | 188 | – | average activity counts [6, 11]: 193; average activity counts ([6]; 100 µM, 48 h): 202; average activity counts ([6]; 100 µM, 72 h): 171; average fraction of germinated seeds ([7]; 5 µM): 0.96; main root length ([7]; 5 µM): 40.21 mm; plant weight ([7]; 5 µM): 33.97 mg; average fraction of germinated seeds ([7]; 10 µM): 0.95; main root length ([7]; 10 µM): 41.46 mm; plant weight ([7]; 10 µM): 35.69 mg; average fraction of germinated seeds ([7]; 50 µM): 0.96; main root length ([7]; 50 µM): 35.05 mm; plant weight ([7]; 50 µM): 31.4 mg; IC50 (C. elegans N2 wild-type): 9.76 ± 0.93 µM; IC50 (C. elegans N2 wild-type; Caenorhabditis elegans): < 10 µM; Average viability (signal intensity relative to control) (Skin fibroblasts (BJ); 10 µM): 0.92 ± 0.03; Average viability (signal intensity relative to control) (Skin fibroblasts (BJ); 20 µM): 0.97 ± 0.04; Average viability (signal intensity relative to control) (Skin fibroblasts (BJ); 40 µM): 0.94 ± 0.03; Average viability (signal intensity relative to control) ([8]; 10 µM): 0.97 ± 0.04; Average viability (signal intensity relative to control) ([8]; 20 µM): 1.01 ± 0.05; Average viability (signal intensity relative to control) ([8]; 40 µM): 0.99 ± 0.02 |
| CCOc1ccccc1-c1ccc2[nH]ccc2c1 [i-8] | – | – | – | – | – | – | – | – | – | – | – | – | – | – | – | – | – | – | – | 2.5 | – |
| CCOc1ccc(-c2ccc3[nH]ccc3c2)cc1 [i-10] | – | – | – | – | – | – | – | – | – | – | – | – | – | – | – | – | – | – | – | 1.8 | – |
| CC(C)Oc1cc(-c2ccc3[nH]ccc3c2)ccc1Cl [i-27] | 242 | 235 | 211 | 248 | 227 | 223 | 213 | 207 | 202 | 9.85 ± 0.33 | 7.48 ± 0.06 | 8.83 ± 0.47 | 10.79 ± 0.08 | 169 | 161 | 167 | 189 | 124 | 113 | – | average activity counts [6, 11]: 169; average activity counts ([6]; 100 µM, 48 h): 161; average activity counts ([6]; 100 µM, 72 h): 111; average fraction of germinated seeds ([7]; 5 µM): 0.94; main root length ([7]; 5 µM): 39.90 mm; plant weight ([7]; 5 µM): 33.97 mg; average fraction of germinated seeds ([7]; 10 µM): 0.98; main root length ([7]; 10 µM): 40.35 mm; plant weight ([7]; 10 µM): 35.66 mg; average fraction of germinated seeds ([7]; 50 µM): 0.95; main root length ([7]; 50 µM): 37.27 mm; plant weight ([7]; 50 µM): 30.34 mg; IC50 (C. elegans N2 wild-type; Caenorhabditis elegans): 9.75 ± 1.65 µM; Average viability (signal intensity relative to control) (Skin fibroblasts (BJ); 10 µM): 0.92 ± 0.02; Average viability (signal intensity relative to control) (Skin fibroblasts (BJ); 20 µM): 0.92 ± 0.03; Average viability (signal intensity relative to control) (Skin fibroblasts (BJ); 40 µM): 0.89 ± 0.03; Average viability (signal intensity relative to control) ([8]; 10 µM): 0.78 ± 0.12; Average viability (signal intensity relative to control) ([8]; 20 µM): 0.6 ± 0.19; Average viability (signal intensity relative to control) ([8]; 40 µM): 0.48 ± 0.21; decrease in viability ([8]; 40 µM): ~50% |
| CCCOc1ccccc1-c1ccc2[nH]ccc2c1 [i-11] | – | – | – | – | – | – | – | – | – | – | – | – | – | – | – | – | – | – | – | 1.5 | – |
